7 molecules from patent US20260053834A1, “COVALENT MODIFIERS OF AKT1 AND USES THEREOF” (Terremoto Biosciences, Inc., priority 2023, published 2026) can be followed below.

Assay [1] has as its system LAPC4 prostate cancer cells, which express the AKT1 E17K allele. Put plainly: Antiproliferative effects in LAPC4 cells (CellTiter Glo, 72 h). Type of assay: cell-based. Conditions: Homo sapiens, LAPC4, 72 h, read-out: LAPC4 proliferation IC50: GeoMean IC50. In outline:
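Cells grown in IMDM with 12% FBS, seeded at 1,000 cells/well and treated with compound dilutions in DMSO for 72 h. Intracellular ATP read by luminescence. IC50 from a log(inhibitor) vs. response Hill fit.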
(In general: In ATP-based viability assays light output follows the ATP content of the culture.)

Another assay addresses T1, AKT1 E17K (Homo sapiens, UniProt P31749, E17K).
T1 construct: expressed in transfected cells; host or cells: HEK293
Put plainly: Live cell target engagement by NanoBRET competitive probe displacement, AKT1 E17K. It counts as binding. Conditions: transfected HEK293 cells, 2 h at 37° C., read-out: AKT1 E17K IC50: GeoMean IC50. On the technique in general: BRET reads energy transfer from a luciferase to a nearby fluorophore.

For the next assay, the target named is T2, AKT1 WT (Homo sapiens, UniProt P31749).
T2 construct: expressed in transfected cells; host or cells: HEK293
T2 sequence (P31749 whole entry): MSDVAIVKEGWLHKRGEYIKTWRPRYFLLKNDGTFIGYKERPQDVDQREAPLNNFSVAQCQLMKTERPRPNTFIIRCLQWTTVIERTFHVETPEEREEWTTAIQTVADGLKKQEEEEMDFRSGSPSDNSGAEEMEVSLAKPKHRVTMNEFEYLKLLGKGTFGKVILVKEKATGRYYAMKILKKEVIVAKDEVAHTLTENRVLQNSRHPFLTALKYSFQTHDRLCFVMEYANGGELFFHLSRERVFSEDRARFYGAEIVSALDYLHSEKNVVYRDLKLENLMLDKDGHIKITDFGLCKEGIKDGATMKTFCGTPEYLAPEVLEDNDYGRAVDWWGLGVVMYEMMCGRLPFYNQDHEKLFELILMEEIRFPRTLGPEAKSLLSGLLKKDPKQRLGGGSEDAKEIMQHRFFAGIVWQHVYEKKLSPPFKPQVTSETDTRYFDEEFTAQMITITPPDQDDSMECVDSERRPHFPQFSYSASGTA
Put plainly: Live cell target engagement by NanoBRET competitive probe displacement, AKT1 WT. Conditions: transfected HEK293 cells, 2 h at 37° C., read-out: AKT1 WT IC50: GeoMean IC50. Type of assay: binding.

Another assay concerns the target T3, AKT2 (Homo sapiens, UniProt P31751).
T3 construct: expressed in transfected cells; host or cells: HEK293
Put plainly: Live cell target engagement by NanoBRET competitive probe displacement, AKT2. Type of assay: binding. Conditions: transfected HEK293 cells, 2 h at 37° C., read-out: AKT2 IC50: GeoMean IC50.

Bounds are passed on as bounds.

T3 sequence (P31751 whole entry): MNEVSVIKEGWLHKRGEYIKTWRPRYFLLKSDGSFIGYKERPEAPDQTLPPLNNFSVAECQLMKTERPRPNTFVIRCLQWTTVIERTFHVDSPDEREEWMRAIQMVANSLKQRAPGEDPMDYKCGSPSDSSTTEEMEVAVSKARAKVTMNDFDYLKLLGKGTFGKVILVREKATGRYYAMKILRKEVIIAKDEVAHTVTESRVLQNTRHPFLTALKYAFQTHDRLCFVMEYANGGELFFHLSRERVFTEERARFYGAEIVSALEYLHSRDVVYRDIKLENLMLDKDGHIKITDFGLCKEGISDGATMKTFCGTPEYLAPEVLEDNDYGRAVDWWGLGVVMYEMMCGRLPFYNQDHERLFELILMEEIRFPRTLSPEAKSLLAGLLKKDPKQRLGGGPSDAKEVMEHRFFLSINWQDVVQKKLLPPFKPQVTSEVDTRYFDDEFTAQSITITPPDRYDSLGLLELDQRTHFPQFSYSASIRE
T1 sequence (P31749 whole entry E17K): as the sequence (P31749 whole entry) above, with E17K counted along it

As to `Nc1ncccc1-c1nc2ccc(-n3nccn3)nc2n1-c1ccc2c(c1)CC[C@@H]2NC(=O)c1cc(F)c(O)c(C=O)c1` [Example 115, N-[(1S)-5-[2-(2-aminopyridin-3-yl)-5-(1,2,3-triazol-2-yl)imidazo[4,5-b]pyridin-3-yl]-2,3-dihydro-1H-inden-1-yl]-3-fluoro-5-formyl-4-hydroxybenzamide], the IC50 in assay [1] was in the range of 0.01 to 0.1 µM; at AKT1 E17K, 0.01 to 0.1 µM; on AKT1 WT it was 0.01 to 0.1 µM; on AKT2, 0.1 to 2 µM.

With `Nc1ncccc1-c1nc2ccc(-n3ccc(C(F)F)n3)nc2n1-c1ccc2c(c1)CC[C@@H]2NC(=O)c1ccc(O)c(C=O)c1` [Example 116, (S)—N-(5-(2-(2-aminopyridin-3-yl)-5-(3-(difluoromethyl)-1H-pyrazol-1-yl)-3H-imidazo[4,5-b]pyridin-3-yl)-2,3-dihydro-1H-inden-1-yl)-3-formyl-4-hydroxybenzamide], the IC50 in assay [1] lay in the range of 0.1 to 2 µM; at AKT1 E17K, 0.01 to 0.1 µM; at AKT1 WT it was 0.01 to 0.1 µM; at AKT2, 0.1 to 2 µM.

For `Nc1ncccc1-c1nc2ccc(-n3ccc(-n4cccn4)n3)nc2n1-c1ccc2c(c1)CC[C@@H]2NC(=O)c1ccc(O)c(C=O)c1` [Example 117, (S)—N-(5-(5-(1′H-[1,3′-bipyrazol]-1′-yl)-2-(2-aminopyridin-3-yl)-3H-imidazo[4,5-b]pyridin-3-yl)-2,3-dihydro-1H-inden-1-yl)-3-formyl-4-hydroxybenzamide], the IC50 in assay [1] lay within 0.01 to 0.1 µM; at AKT1 E17K, 0.01 to 0.1 µM; at AKT1 WT, 0.01 to 0.1 µM; at AKT2 it was 0.1 to 2 µM.

For the molecule `Nc1ncccc1-c1nc2ccc(-n3nccn3)nc2n1-c1ccc2c(c1)CC[C@@H]2NC(=O)c1cc(C=O)c(O)c(F)c1F` [Example 118, (S)—N-(5-(2-(2-aminopyridin-3-yl)-5-(2H-1,2,3-triazol-2-yl)-3H-imidazo[4,5-b]pyridin-3-yl)-2,3-dihydro-1H-inden-1-yl)-2,3-difluoro-5-formyl-4-hydroxybenzamide], the IC50 in assay [1] was in the range of 0.01 to 0.1 µM; on AKT1 E17K, 0.01 to 0.1 µM; on AKT1 WT, 0.01 to 0.1 µM; on AKT2, 0.1 to 2 µM.

As for `C#Cc1ccn(-c2ccc3nc(-c4cccnc4N)n(-c4ccc5c(c4)CC[C@@H]5NC(=O)c4ccc(O)c(C=O)c4)c3n2)n1` [Example 119, N-[(1S)-5-[2-(2-aminopyridin-3-yl)-5-(3-ethynylpyrazol-1-yl)imidazo[4,5-b]pyridin-3-yl]-2,3-dihydro-1H-inden-1-yl]-3-formyl-4-hydroxybenzamide], the IC50 in assay [1] was 0.01 to 0.1 µM; on AKT1 E17K, under 0.01 µM; at AKT1 WT, 0.01 to 0.1 µM; at AKT2 it was 0.1 to 2 µM.

Regarding `Cn1ncc(-c2ccc3nc(-c4cccnc4N)n(-c4ccc5c(c4)CC[C@@H]5NC(=O)c4ccc(O)c(C=O)c4)c3n2)n1` [Example 120, N-[(1S)-5-[2-(2-aminopyridin-3-yl)-5-(2-methyl-1,2,3-triazol-4-yl)imidazo[4,5-b]pyridin-3-yl]-2,3-dihydro-1H-inden-1-yl]-3-formyl-4-hydroxybenzamide], the IC50 in assay [1] is 0.01 to 0.1 µM; at AKT1 E17K, under 0.01 µM; on AKT1 WT it was 0.01 to 0.1 µM; on AKT2, 0.1 to 2 µM.

With `Nc1ncccc1-c1nc2ccc(-c3ncco3)nc2n1-c1ccc2c(c1)CC[C@@H]2NC(=O)c1ccc(O)c(C=O)c1` [Example 121, (S)—N-(5-(2-(2-aminopyridin-3-yl)-5-(oxazol-2-yl)-3H-imidazo[4,5-b]pyridin-3-yl)-2,3-dihydro-1H-inden-1-yl)-3-formyl-4-hydroxybenzamide], the IC50 is 0.01 to 0.1 µM in assay [1], under 0.01 µM on AKT1 E17K, 0.01 to 0.1 µM at AKT1 WT and 0.1 to 2 µM at AKT2.
